In patent US9371265B2, “Compositions and methods related to inhibitors of JAK kinase” (EP PHARMA, INC., priority 2012, dated 2016):

Experiments:
immunopurified JAK3 = target: T1, immunopurified JAK3 (Homo sapiens, UniProt P52333); assay: In vitro JAK3 autokinase assay; assay type: biochemical; conditions: 1 μM ATP, densitometry analysis
T1 construct: immunopurified JAK3 from YT cells resuspended in kinase buffer; endogenous in cells; host or cells: YT cells (immunoprecipitate)

H2228 = H2228 cell viability (MTS); assay type: cell-based, human; conditions: 0-10 μM, 72 hours
Protocol: FIGS. 7A-7C. EP009 reduces ALCL cell viability through induction of caspase 3 mediated apoptosis. (A) SUP-M2, SU-DHL-1 or H2228 cells were cultured with increasing amounts of EP009 (0-10 μM) for 72 hours and cell viability measured with the MTS tetrazolium salt assay. Values represent mean absorbance (OD490-OD650 nm) normalized to vehicle (PBS) treated control cells, while error bars represent the standard deviation (n=3). (B) SU-DHL-1 cells were treated with vehicle (PBS) or increasing amounts of EP009 (0-50 μM) for 24 hours. Cells were then lysed, clarified, and subjected to Luminex multiplex analysis to detect activated caspase 3 and (C) cleaved PARP. Values represent MFI normalized to corresponding GAPDH MFI, while error bars represent the standard deviation (n=2). Representative data from three independent experiments are shown. Statistical significance was determined using Student's t-test. (*, p<0.05).
Cell viability was assessed with 3-(4,5-dimethylthiazol-2-yl)-5-(3-carboxymethoxyphenyl)-2-(4-sulfophenyl)-2H-tetrazolium salt (MTS) reagent (Promega) in triplicates according to the manufacturer's instructions. Three independent experiments were performed. The error bars represent standard deviation.

ERK1/2 = assay: Phospho-ERK1/2 in SU-DHL-1 cells (Luminex multiplex); assay type: cell-based, human; conditions: 24 hours, dose-dependent
Protocol: (§1) FIGS. 8A-8F. Effect of EP009 on ALCL cells is mediated through selective activation of ERK1/2 and JNK1/2 stress signaling pathways, and inhibition of p70 S6 kinase growth signaling pathways. SU-DHL-1 cells were treated with vehicle (PBS) or increasing amounts of EP009 (0-50 μM) for 24 hours. Cells were then lysed, clarified, and subjected to Luminex multiplex analysis to detect phosphorylated (A) ERK1/2, (B) JNK1/2, (C) p70 S6 kinase, (D) IκBα, (E) CREB, and (F) p38. Values represent mean fluorescence intensity (MFI) normalized to corresponding GAPDH MFI, while error bars represent the standard deviation (n=2). Representative data from two independent experiments are shown. Statistical significance was determined using Student's t-test. (*, p<0.05).
(§2) The MILLIPLEX MAP 8-plex Multi-Pathway Signaling Phosphoprotein kit (Millipore) was used to detect phosphorylated ERK1/2 (Thr185/Tyr187), STAT3 (Ser727), JNK1/2 (Thr183/Tyr185), p70 S6 kinase (Thr412), IκBα (Ser32), STAT5A/B (Tyr694/699), CREB (Ser133), and p38 (Thr180/Tyr182). The MILLIPLEX MAP 5-plex STAT Phosphoprotein kit (Millipore) was used to detect phosphorylated STAT1 (Tyr701), STAT2 (Tyr690), STAT3 (Tyr705), STAT5A/B (Tyr694/699), and STAT6 (Tyr641). The MILLIPLEX MAP Human Apoptosis 3-plex kit (Millipore) was used to detect cleaved PARP, cleaved Caspase 3, and total GAPDH for protein normalization.

p70 S6 kinase = assay: Phospho-p70 S6 kinase in SU-DHL-1 cells (Luminex multiplex); assay type: cell-based, human; conditions: 24 hours
Protocol: as §1, §2

CDK7 = CDK7 (Homo sapiens, UniProt P50613); assay: Kinase panel: CDK7; assay type: biochemical; conditions: 10 μM EP009
Protocol: (§3) Achieving JAK3 selectivity remains a significant challenge in the development of new small molecules for the treatment of cancer and immune-derived diseases. As such, the inventors employed cell-based screening assays of small-molecule libraries based upon the chemical scaffold of the established JAK3 inhibitor NC1153 (Stepkowski et al., J Immunol. (2005), 175(7):4236-4246) EP009 (FIG. 2A) was selected as a lead compound due to improved intrinsic stability (>95% purity in various solvents at 37° C. for 24 hours; FIG. 3) and high-degree of JAK3 selectivity. To test JAK3 versus JAK2 specificity of EP009, the IL-2/JAK3-dependent Kit225, and IL-3/JAK2-dependent BaF/3 cell lines were used. Kit225 and BaF/3 cells growing in the presence of IL-2 or IL-3, respectively, were treated with ascending concentrations of EP009 for 12 hours and cellular JAK3 and JAK2 tyrosine phosphorylation levels detected by Western blot analysis (FIGS. 2B and 2C). Following densitometric analysis, EP009 was determined to dose-dependently reduce IL-2-mediated JAK3 tyrosine phosphorylation with a cellular 50% inhibitory concentration (IC50) between 10 and 20 μM (FIG. 2B). […] To globally evaluate specificity, the inhibitory activity of EP009 was measured against a panel of protein kinases distributed throughout the kinome using the scanEDGE profiling service (KINOMEscan). […]

CSNK1D = CSNK1D (Homo sapiens, UniProt P48730); assay: Kinase panel: CSNK1D; assay type: biochemical; conditions: 10 μM EP009
Protocol: as §3

GSK3B = GSK3B (Homo sapiens, UniProt P49841); assay: Kinase panel: GSK3B; assay type: biochemical; conditions: 10 μM EP009
Protocol: as §3

IKK-beta = IKK-beta (Homo sapiens, UniProt O14920); assay: Kinase panel: IKK-beta; assay type: biochemical; conditions: 10 μM EP009
Protocol: as §3

SRC = SRC (Homo sapiens, UniProt P12931); assay: Kinase panel: SRC; assay type: biochemical; conditions: 10 μM EP009
Protocol: as §3

SRPK3 = SRPK3 (Homo sapiens, UniProt Q9UPE1); assay: Kinase panel: SRPK3; assay type: biochemical; conditions: 10 μM EP009
Protocol: as §3

YANK3 = YANK3 (Homo sapiens, UniProt Q86UX6); assay: Kinase panel: YANK3; assay type: biochemical; conditions: 10 μM EP009
Protocol: as §3

Sequence of IKK-beta (O14920 whole entry): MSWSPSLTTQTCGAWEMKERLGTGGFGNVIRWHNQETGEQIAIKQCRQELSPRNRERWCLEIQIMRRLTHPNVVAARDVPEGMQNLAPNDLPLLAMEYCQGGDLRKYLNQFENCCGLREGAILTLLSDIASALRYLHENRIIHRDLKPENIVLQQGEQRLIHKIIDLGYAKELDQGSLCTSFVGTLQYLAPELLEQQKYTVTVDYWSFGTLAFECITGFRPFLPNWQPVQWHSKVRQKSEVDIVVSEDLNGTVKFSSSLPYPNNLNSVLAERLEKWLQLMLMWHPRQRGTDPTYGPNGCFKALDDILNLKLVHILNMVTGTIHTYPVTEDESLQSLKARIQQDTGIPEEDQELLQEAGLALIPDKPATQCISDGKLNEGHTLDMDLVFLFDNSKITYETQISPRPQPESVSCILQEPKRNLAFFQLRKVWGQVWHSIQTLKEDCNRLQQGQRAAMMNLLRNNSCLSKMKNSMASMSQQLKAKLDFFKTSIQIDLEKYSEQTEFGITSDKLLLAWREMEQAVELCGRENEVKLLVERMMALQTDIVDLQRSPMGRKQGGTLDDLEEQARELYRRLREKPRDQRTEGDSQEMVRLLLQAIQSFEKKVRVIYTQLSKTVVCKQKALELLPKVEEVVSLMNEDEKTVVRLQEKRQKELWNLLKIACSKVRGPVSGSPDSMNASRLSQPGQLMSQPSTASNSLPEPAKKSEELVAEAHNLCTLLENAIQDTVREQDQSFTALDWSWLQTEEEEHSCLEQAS
Sequence of CSNK1D (P48730 whole entry): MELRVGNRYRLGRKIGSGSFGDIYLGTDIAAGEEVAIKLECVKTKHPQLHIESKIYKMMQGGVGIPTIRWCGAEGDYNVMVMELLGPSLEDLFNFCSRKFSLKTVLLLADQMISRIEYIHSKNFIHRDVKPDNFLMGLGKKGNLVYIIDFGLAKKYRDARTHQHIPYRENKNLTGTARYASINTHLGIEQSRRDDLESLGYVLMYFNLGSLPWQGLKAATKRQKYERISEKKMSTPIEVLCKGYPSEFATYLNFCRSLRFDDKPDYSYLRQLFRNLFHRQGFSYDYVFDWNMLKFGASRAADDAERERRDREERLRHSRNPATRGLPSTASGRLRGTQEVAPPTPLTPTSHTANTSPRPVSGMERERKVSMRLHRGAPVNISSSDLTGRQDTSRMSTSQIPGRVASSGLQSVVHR
Sequence of CDK7 (P50613 whole entry): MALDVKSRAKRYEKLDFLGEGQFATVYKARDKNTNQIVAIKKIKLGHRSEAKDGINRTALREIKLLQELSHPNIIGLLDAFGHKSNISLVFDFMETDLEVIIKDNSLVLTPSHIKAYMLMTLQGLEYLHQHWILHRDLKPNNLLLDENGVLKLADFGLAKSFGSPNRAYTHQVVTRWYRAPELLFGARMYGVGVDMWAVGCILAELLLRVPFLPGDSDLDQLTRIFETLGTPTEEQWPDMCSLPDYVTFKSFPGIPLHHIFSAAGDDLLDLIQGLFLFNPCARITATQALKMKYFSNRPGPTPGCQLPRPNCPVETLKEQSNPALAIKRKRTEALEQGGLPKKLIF
Sequence of YANK3 (Q86UX6 whole entry): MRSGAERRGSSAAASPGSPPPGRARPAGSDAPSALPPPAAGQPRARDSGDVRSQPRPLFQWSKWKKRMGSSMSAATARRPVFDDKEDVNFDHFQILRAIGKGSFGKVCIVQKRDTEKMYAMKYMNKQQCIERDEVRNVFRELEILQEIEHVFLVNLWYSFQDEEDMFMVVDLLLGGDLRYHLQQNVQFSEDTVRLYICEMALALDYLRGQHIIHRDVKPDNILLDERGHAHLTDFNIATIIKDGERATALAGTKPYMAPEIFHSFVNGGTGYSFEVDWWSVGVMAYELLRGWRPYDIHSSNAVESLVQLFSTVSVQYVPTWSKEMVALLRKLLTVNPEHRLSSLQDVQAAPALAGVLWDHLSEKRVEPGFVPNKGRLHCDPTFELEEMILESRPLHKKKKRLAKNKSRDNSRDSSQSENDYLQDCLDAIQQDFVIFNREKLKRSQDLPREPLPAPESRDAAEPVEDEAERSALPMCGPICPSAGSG
T1 sequence (P52333 whole entry): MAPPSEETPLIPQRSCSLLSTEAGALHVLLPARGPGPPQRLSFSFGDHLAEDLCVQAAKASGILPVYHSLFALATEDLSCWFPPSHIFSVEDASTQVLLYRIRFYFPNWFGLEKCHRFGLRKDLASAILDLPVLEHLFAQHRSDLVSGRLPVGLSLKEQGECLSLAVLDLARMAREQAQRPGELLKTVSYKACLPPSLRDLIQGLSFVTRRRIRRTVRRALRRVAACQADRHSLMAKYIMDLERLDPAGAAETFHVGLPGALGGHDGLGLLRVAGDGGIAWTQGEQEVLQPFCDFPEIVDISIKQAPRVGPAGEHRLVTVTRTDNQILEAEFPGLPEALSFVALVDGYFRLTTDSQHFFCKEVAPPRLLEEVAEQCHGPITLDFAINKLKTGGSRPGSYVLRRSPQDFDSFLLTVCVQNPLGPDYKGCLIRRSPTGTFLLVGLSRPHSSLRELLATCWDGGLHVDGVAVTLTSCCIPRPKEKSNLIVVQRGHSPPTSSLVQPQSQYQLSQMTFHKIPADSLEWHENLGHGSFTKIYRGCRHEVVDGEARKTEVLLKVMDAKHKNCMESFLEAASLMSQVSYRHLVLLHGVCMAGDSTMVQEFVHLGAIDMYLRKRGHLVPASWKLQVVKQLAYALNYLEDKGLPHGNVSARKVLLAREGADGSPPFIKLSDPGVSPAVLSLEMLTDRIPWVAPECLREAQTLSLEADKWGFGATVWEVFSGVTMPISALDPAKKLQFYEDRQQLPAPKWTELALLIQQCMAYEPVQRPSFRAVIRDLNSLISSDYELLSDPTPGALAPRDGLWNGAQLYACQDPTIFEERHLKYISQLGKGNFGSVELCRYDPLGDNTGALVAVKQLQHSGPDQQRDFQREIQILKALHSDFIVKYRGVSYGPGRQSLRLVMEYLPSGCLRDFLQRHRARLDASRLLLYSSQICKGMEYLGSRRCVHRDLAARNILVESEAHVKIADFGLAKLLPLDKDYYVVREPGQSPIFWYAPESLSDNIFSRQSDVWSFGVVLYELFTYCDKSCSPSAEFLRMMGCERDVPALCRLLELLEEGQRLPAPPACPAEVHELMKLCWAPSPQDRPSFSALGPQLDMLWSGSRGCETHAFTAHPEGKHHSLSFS
Sequence of SRC (P12931 whole entry): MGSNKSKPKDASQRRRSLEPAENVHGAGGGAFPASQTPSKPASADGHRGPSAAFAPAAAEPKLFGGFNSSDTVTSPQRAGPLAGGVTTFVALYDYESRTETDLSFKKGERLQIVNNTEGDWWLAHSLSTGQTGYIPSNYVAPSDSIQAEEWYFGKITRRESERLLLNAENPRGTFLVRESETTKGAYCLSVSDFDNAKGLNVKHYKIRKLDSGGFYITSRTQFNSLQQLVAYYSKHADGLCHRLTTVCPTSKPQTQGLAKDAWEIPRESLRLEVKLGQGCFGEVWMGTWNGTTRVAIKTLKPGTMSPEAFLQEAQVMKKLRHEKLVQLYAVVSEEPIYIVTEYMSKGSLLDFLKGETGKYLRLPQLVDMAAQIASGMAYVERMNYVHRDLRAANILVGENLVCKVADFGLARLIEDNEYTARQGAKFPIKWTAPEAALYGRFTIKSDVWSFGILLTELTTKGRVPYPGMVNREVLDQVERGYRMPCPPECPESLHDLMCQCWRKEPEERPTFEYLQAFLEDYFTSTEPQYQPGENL
Sequence of GSK3B (P49841 whole entry): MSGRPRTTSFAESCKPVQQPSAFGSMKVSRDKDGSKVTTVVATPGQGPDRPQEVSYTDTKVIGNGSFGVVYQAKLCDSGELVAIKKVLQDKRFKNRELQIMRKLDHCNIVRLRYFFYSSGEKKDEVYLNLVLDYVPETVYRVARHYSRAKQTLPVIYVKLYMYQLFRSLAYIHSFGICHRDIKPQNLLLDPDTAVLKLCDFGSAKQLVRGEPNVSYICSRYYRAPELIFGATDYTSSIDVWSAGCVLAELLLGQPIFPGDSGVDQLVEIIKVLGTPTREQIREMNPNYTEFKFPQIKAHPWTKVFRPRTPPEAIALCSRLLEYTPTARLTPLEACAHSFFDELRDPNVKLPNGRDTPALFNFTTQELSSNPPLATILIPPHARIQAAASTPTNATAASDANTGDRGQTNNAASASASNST
Sequence of SRPK3 (Q9UPE1 whole entry): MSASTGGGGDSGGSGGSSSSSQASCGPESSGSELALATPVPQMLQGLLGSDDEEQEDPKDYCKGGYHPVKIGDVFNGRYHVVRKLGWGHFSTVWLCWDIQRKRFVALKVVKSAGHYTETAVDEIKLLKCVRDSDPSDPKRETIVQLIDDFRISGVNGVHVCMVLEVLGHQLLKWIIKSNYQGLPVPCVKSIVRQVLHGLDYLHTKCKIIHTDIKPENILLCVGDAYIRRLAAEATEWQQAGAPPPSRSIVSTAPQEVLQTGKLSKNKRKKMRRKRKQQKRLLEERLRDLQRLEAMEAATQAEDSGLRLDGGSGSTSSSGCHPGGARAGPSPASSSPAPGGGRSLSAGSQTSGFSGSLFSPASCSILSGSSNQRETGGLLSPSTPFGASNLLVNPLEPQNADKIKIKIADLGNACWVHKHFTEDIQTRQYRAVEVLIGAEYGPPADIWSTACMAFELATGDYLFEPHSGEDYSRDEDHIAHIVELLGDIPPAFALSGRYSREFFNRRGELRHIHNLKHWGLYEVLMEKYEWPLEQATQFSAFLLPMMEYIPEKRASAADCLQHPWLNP

Compound: C=C1CCCCCCCCCC(CO)C1=O (centres unmarked) [EP009, 2-(Hydroxymethyl)-12-methylenecyclododecanone]
- IC50 (immunopurified JAK3): 1000 to 2500 nM
- effect on H2228 cell viability (H2228): no effect
- ERK1/2 phosphorylation (ERK1/2): induced phosphorylation and activation
- constitutive phosphorylation of p70 S6 kinase (p70 S6 kinase): decreased in a dose-dependent manner
- Kinase Activity (% of Control) (CDK7): 99 % of Control
- Kinase Activity (% of Control) (CSNK1D): 100 % of Control
- Kinase Activity (% of Control) (GSK3B): 100 % of Control
- Kinase Activity (% of Control) (IKK-beta): 73 % of Control
- Kinase Activity (% of Control) (SRC): 100 % of Control
- Kinase Activity (% of Control) (SRPK3): 100 % of Control
- Kinase Activity (% of Control) (YANK3): 98 % of Control
